Measured values as given in ChEMBL document CHEMBL2413072, “Synthesis and in vitro anticancer studies of novel C-2 arylidene congeners of lantadenes” (2013).

What was measured:
Assay type in all cases: functional
[1] = test system: SW-620; assay: Growth inhibition of human SW620 cells by sulforhodamine B assay
[2] = test system: KM12; assay: Growth inhibition of human KM12 cells by sulforhodamine B assay
[3] = test system: NCI-H322M; assay: Growth inhibition of human NCI-H322M cells by sulforhodamine B assay
[4] = test system: HOP-62; assay: Growth inhibition of human HOP62 cells by sulforhodamine B assay
[5] = test system: HOP-92; assay: Growth inhibition of human HOP92 cells by sulforhodamine B assay
[6] = test system: K562; assay: Growth inhibition of human K562 cells by sulforhodamine B assay
[7] = test system: UACC-62; assay: Growth inhibition of human UACC62 cells assessed as cell growth at 10^-8 M by sulforhodamine B assay; conditions: read-out: Activity
[8] = test system: SW-620; assay: Growth inhibition of human SW620 cells assessed as cell growth at 10^-8 M by sulforhodamine B assay; conditions: read-out: Activity
[9] = test system: NCI-H460; assay: Growth inhibition of human NCI-H460 cells assessed as cell growth at 10^-8 M by sulforhodamine B assay; conditions: read-out: Activity
[10] = test system: NCI-H522; assay: Growth inhibition of human NCI-H522 cells assessed as cell growth at 10^-8 M by sulforhodamine B assay; conditions: read-out: Activity
[11] = test system: A549; assay: Growth inhibition of human A549/ATCC cells assessed as cell growth at 10^-8 M by sulforhodamine B assay; conditions: read-out: Activity
[12] = test system: MOLT-4; assay: Growth inhibition of human MOLT4 cells assessed as cell growth at 10^-8 M by sulforhodamine B assay; conditions: read-out: Activity
[13] = test system: SK-OV-3; assay: Growth inhibition of human SKOV3 cells by sulforhodamine B assay
[14] = Growth inhibition of human NCI-ADR-RES cells by sulforhodamine B assay
[15] = test system: IGROV-1; assay: Growth inhibition of human IGROV1 cells by sulforhodamine B assay
[16] = test system: SK-MEL-2; assay: Growth inhibition of human SK-MEL-2 cells by sulforhodamine B assay
[17] = test system: TK-10; assay: Growth inhibition of human TK10 cells assessed as cell growth at 10^-4 M by sulforhodamine B assay; conditions: read-out: Activity
[18] = test system: 786-0; assay: Growth inhibition of human 786-0 cells assessed as cell growth at 10^-4 M by sulforhodamine B assay; conditions: read-out: Activity
[19] = test system: IGROV-1; assay: Growth inhibition of human IGROV1 cells assessed as cell growth at 10^-4 M by sulforhodamine B assay; conditions: read-out: Activity
[20] = test system: UACC-62; assay: Growth inhibition of human UACC62 cells assessed as cell growth at 10^-4 M by sulforhodamine B assay; conditions: read-out: Activity
[21] = test system: HCT-116; assay: Growth inhibition of human HCT116 cells assessed as cell growth at 10^-4 M by sulforhodamine B assay; conditions: read-out: Activity
[22] = test system: NCI-H322M; assay: Growth inhibition of human NCI-H322M cells assessed as cell growth at 10^-4 M by sulforhodamine B assay; conditions: read-out: Activity
[23] = test system: MDA-MB-468; assay: Growth inhibition of human MDA-MB-468 cells assessed as cell growth at 10^-6 M by sulforhodamine B assay; conditions: read-out: Activity
[24] = Growth inhibition of human NCI-ADR-RES cells assessed as cell growth at 10^-6 M by sulforhodamine B assay; conditions: read-out: Activity
[25] = test system: OVCAR-4; assay: Growth inhibition of human OVCAR4 cells assessed as cell growth at 10^-6 M by sulforhodamine B assay; conditions: read-out: Activity
[26] = test system: SNB-19; assay: Growth inhibition of human SNB19 cells assessed as cell growth at 10^-6 M by sulforhodamine B assay; conditions: read-out: Activity
[27] = test system: SW-620; assay: Growth inhibition of human SW620 cells assessed as cell growth at 10^-6 M by sulforhodamine B assay; conditions: read-out: Activity
[28] = test system: HT-29; assay: Growth inhibition of human HT-29 cells assessed as cell growth at 10^-6 M by sulforhodamine B assay; conditions: read-out: Activity
[29] = test system: A549; assay: Growth inhibition of human A549/ATCC cells assessed as cell growth at 10^-6 M by sulforhodamine B assay; conditions: read-out: Activity
[30] = test system: PC-3; assay: Growth inhibition of human PC3 cells assessed as cell growth at 10^-7 M by sulforhodamine B assay; conditions: read-out: Activity
[31] = test system: 786-0; assay: Growth inhibition of human 786-0 cells assessed as cell growth at 10^-7 M by sulforhodamine B assay; conditions: read-out: Activity
[32] = test system: HCT-15; assay: Growth inhibition of human HCT15 cells assessed as cell growth at 10^-7 M by sulforhodamine B assay; conditions: read-out: Activity
[33] = test system: NCI-H460; assay: Growth inhibition of human NCI-H460 cells assessed as cell growth at 10^-7 M by sulforhodamine B assay; conditions: read-out: Activity
[34] = test system: HOP-92; assay: Growth inhibition of human HOP92 cells assessed as cell growth at 10^-7 M by sulforhodamine B assay; conditions: read-out: Activity
[35] = test system: K562; assay: Growth inhibition of human K562 cells assessed as cell growth at 10^-7 M by sulforhodamine B assay; conditions: read-out: Activity
[36] = Growth inhibition of human Hs 578T cells assessed as cell growth at 10^-8 M by sulforhodamine B assay; conditions: read-out: Activity
[37] = test system: TK-10; assay: Growth inhibition of human TK10 cells assessed as cell growth at 10^-8 M by sulforhodamine B assay; conditions: read-out: Activity
[38] = test system: CAKI-1; assay: Growth inhibition of human CAKI-1 cells assessed as cell growth at 10^-8 M by sulforhodamine B assay; conditions: read-out: Activity
[39] = read-out: LC50 (the source's name)
[40] = read-out: pLC50 (the source's name) (converted)

## CC(C)=CC(=O)O[C@@H]1CC(C)(C)C[C@H]2C3=CC[C@@H]4[C@@]5(C)CCC(=O)C(C)(C)[C@@H]5CC[C@@]4(C)[C@]3(C)CC[C@@]12C(=O)O
[1]; read-out: GI50
  GI50: 4 µM
[1]; [39]
  CC50: > 100 µM
[1]; read-out: TGI
  TGI: 36.1 µM
[1]; read-out: pGI50 (converted)
  GI50: 3.98 µM
[1]; [40]
  CC50: > 100 µM
[1]; read-out: pTGI (converted)
  TGI: 36.3 µM
[2]; read-out: GI50
  GI50: 0.879 µM
[2]; read-out: LC50
  LC50 (50% net cell kill): 59.3 µM
[2]; read-out: TGI
  TGI: 15.3 µM
[2]; read-out: pGI50 (converted)
  GI50: 0.871 µM
[2]; read-out: pLC50 (converted)
  LC50 (50% net cell kill): 58.9 µM
[2]; read-out: pTGI (converted)
  TGI: 15.5 µM
[3]; read-out: GI50
  GI50: 2.87 µM
[3]; read-out: LC50
  LC50 (50% lethal concentration): > 100 µM
[3]; read-out: TGI
  TGI: 19.9 µM
[3]; read-out: pGI50 (converted)
  GI50: 2.88 µM
[3]; read-out: pLC50 (converted)
  LC50 (50% lethal concentration): > 100 µM
[3]; read-out: pTGI (converted)
  TGI: 20 µM
[4]; read-out: GI50
  GI50: 9.26 µM
[4]; read-out: LC50
  LC50 (concentration killing 50% of cells): > 100 µM
[4]; read-out: TGI
  TGI: 49.8 µM
[4]; read-out: pGI50 (converted)
  GI50: 9.33 µM
[4]; read-out: pLC50 (converted)
  LC50 (concentration killing 50% of cells): > 100 µM
[4]; read-out: pTGI (converted)
  TGI: 50.1 µM
[5]; read-out: GI50
  GI50: 1.7 µM
[5]; [39]
  CC50: > 100 µM
[5]; read-out: TGI
  TGI: 7.02 µM
[5]; read-out: pGI50 (converted)
  GI50: 1.7 µM
[5]; [40]
  CC50: > 100 µM
[5]; read-out: pTGI (converted)
  TGI: 7.08 µM
[6]; read-out: GI50
  GI50: 3.47 µM
[6]; read-out: LC50
  LC50: > 100 µM
[6]; read-out: TGI
  TGI: > 100 µM
[6]; read-out: pGI50 (converted)
  GI50: 3.47 µM
[6]; read-out: pLC50 (converted)
  LC50: > 100 µM
[6]; read-out: pTGI (converted)
  TGI: > 100 µM
[7]
  growth at 0.01 µM: 102%
[8]
  growth at 0.01 µM: 100%
[9]
  growth at 0.01 µM: 105%
[10]
  growth at 0.01 µM: 102%
[11]
  growth at 0.01 µM: 93%
[12]
  growth at 0.01 µM: 107%
[13]; read-out: GI50
  GI50: 16.6 µM
[13]; [39]
  CC50: > 100 µM
[13]; read-out: TGI
  TGI: > 100 µM
[13]; read-out: pGI50 (converted)
  GI50: 16.6 µM
[13]; [40]
  CC50: > 100 µM
[13]; read-out: pTGI (converted)
  TGI: > 100 µM
[14]; read-out: GI50
  GI50: 3.75 µM
[14]; [39]
  CC50: > 100 µM
[14]; read-out: TGI
  TGI: > 100 µM
[14]; read-out: pGI50 (converted)
  GI50: 3.72 µM
[14]; [40]
  CC50: > 100 µM
[14]; read-out: pTGI (converted)
  TGI: > 100 µM
[15]; read-out: GI50
  GI50: 5.36 µM
[15]; [39]
  CC50: > 100 µM
[15]; read-out: TGI
  TGI: 38.4 µM
[15]; read-out: pGI50 (converted)
  GI50: 5.37 µM
[15]; [40]
  CC50: > 100 µM
[15]; read-out: pTGI (converted)
  TGI: 38 µM
[16]; read-out: GI50
  GI50: 3.48 µM
[16]; [39]
  CC50: 61.3 µM
[16]; read-out: TGI
  TGI: 16.9 µM
[16]; read-out: pGI50 (converted)
  GI50: 3.47 µM
[16]; [40]
  CC50: 61.7 µM
[16]; read-out: pTGI (converted)
  TGI: 17 µM
[17]
  growth at 100 µM: -18%
[18]
  growth at 100 µM: -42%
[19]
  growth at 100 µM: -23%
[20]
  growth at 100 µM: -80%
[21]
  growth at 100 µM: -6%
[22]
  growth at 100 µM: -25%
[23]
  growth at 1 µM: 74%
[24]
  growth at 1 µM: 85%
[25]
  growth at 1 µM: 83%
[26]
  growth at 1 µM: 87%
[27]
  growth at 1 µM: 83%
[28]
  growth at 1 µM: 82%
[29]
  growth at 1 µM: 46%
[30]
  growth at 0.1 µM: 86%
[31]
  growth at 0.1 µM: 99%
[32]
  growth at 0.1 µM: 86%
[33]
  growth at 0.1 µM: 101%
[34]
  growth at 0.1 µM: 90%
[35]
  growth at 0.1 µM: 95%
[36]
  growth at 0.01 µM: 96%
[37]
  growth at 0.01 µM: 96%
[38]
  growth at 0.01 µM: 95%
